# Laboratory results: US9006283B2, “Methods of modifying amyloid β oligomers using non-peptidic compounds” (Acumen Pharmaceuticals, Inc., priority 2007, dated 2015)
# Key:
# [1] = target: Aβ1-42 monomer assembly into Aβ oligomers (ADDLs) (Homo sapiens (Human), UniProt P05067); test: FRET assay of Aβ1-42 oligomer (ADDL) assembly inhibition; type: biochemical
# Source text: Fluorescence (or Förster) Resonance Energy Transfer (FRET) is a distance-dependent, non-radiative transfer of energy in which the de-excitation of one fluorophore (donor) is coupled to excitation of another fluorophore (acceptor). FRET occurs if (1) the quantum of energy emitted by a donor fluorophore corresponds to an acceptor fluorophore's excitation energy, (2) the orientations of donor and acceptor transition dipoles are nearly parallel and (3) the donor fluorescent emission spectrum overlaps the acceptor absorption spectrum.
# In this assay, assembly of Aβ1-42 oligomer formation is monitored by FRET using N-terminal conjugates of fluorescein-Aβ1-42 as both the donor and acceptor fluorophore (fluorescein-fluorescein Ro˜45 Å). Aβ1-42 monomers assembling into oligomeric species results in a decrease of fluorescence as the fluorescein labeled Aβ1-42 peptides become proximal to each other and FRET efficiency increases. Inhibition of Aβ1-42 assembly is observed as the absence or attenuation of fluorescein quenching.
# FRET and FP assays are performed in 384-well Corning Non-Binding Surface, black, opaque microtiter plates, and the assay buffer consists of 50 mM MOPS-Tris (pH 8.0) with 100 mM MgCl2. […] ADDL assembly is monitored on a Tecan GENios Pro plate reader, exciting at a wavelength of 485 nm and detecting emission at a wavelength of 515 nm. […]
# [2] = cited from earlier work
# [3] = cited from earlier work; remark: listed apart in the source
# Sequence of Aβ1-42 monomer assembly into Aβ oligomers (ADDLs) (P05067 672-713): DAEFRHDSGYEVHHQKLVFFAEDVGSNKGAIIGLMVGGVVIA
smiles,measurement,setting,value
"NCCCS(=O)(=O)O [Alzhemed, 3-amino-1-propanesulfonic acid]",inhibition of Aβ1-42 monomer assembly into Aβ oligomers,"[1]; FIG. 2, standard FRET assay conditions of Example 1",inability
same,cognitive decline,"[2]; 20 month open-label extension of Phase II trial, some patients with mild AD",slowed cognitive decline
same,efficacy,[2]; blinded phase of the study,no efficacy was observed
Oc1c(I)cc(Cl)c2cccnc12 [Clioquinol],patients' cognitive ability,[3]; compared to untreated patients,stabilize
same,Aβ1-42 levels in plasma,[3]; patients' plasma,lower
"CCOC(=O)c1c(NC(=O)C(=O)N/N=C/c2ccccc2O)sc2c1CCC(C)C2 (stereo not drawn) [Compound 4, 2-{[1-(2-Hydroxyphenyl)-meth-(E)-ylidene-hydrazinooxalyl]-amino}-6-methyl-4,5,6,7-tetrahydro-benzo[b]thiophene-3-carboxylic acid ethyl ester]",inhibition of Aβ1-42 oligomer assembly,"[1]; FIG. 1, Test Compound A ranging from 0.05 to 3 mM (0.05 to 3 μM in figure legend)",dose dependent inhibition
